Like-named read-outs stand apart in the source and are kept apart here.
Tests used:
Assay type in all cases: cell-based, human
HL60 cells = experiment: Determination of the IC50 in HL60 cells (trypan blue exclusion, light/dark); settings: 10–100 µM
Procedure: Figure 1 Uptake and IC50 studies of RU complex: confocal images of OCI-AML3 cells incubated with RU-SST (50 μm) (A) and RU-Alkyne control (RU-Alk) (100μm) (B) for 4 hrs. The laser intensity was measured for alexaflour (430 nm). Uptake characteristics with values of the integrated intensity (a.u.) per cell (C). Bar graphs indicate the average integrated intensity per cell in both experimental arms. Cells analysed for RU-SST (n = 45) and RU-Alk (n = 44). Data are represented as mean ± SEM. (D) IC50 was calculated in HL60 AML cell lines. Percent cell survival was measured by trypan blue exclusion after 4 h incubation with RU-Alk (control), RU-SST (irradiated) compared to RU-SST in the absence of light (dark RU). Experiments performed for dark RU-SST (n = 6); RU-Alk (n = 3), for RU-SST (n = 3). Data are represented as mean ± SEM. […]
phenylalanine as an internal standard (Int. std.) was added to remove large proteins and the solution was centrifuged at […] for 30 min at 0 °C. […] The amount of RU-SST in each sample was determined as a ratio of the integration of the mass chromatogram of RU-SST to the int. std. […]
For this purpose, we chose a high SSTR2 expressing cell line, HL60 2 . […] The cell viability was quantified by trypan blue exclusion. IC50 values were calculated using R-statistical package. […]

OCI-AML3 cells = experiment: CFC assay (clonogenic growth in methylcellulose), OCI-AML3; settings: unconjugated control, 4 h incubation, day 14
Procedure: (§1) To evaluate the toxicity of the bioconjugate on clonogenic progenitor cells, AML cell lines as well primary human cells were incubated with the compound for 4 hours. Subsequently, cells were washed and cell counts were determined via trypan blue exclusion. Colony forming cell unit (CFC) assays were performed as described previously. In all cases cell numbers placed in methylcellulose were calculated according to the initial cell number at the start of the experiment, not taking into account any cell loss during the incubation time. 1000 cells (OCI-AML3 and HL60) and 500 cells (THP1) were plated per dish (methocult H4330). For primary patient samples, 10,000 cells were plated per dish in methylcellulose H4330 (Stem Cell Technologies, Vancouver, BC, Canada) and supplemented with cytokines. For the CD34^+ enriched CB cells, 300 cells were plated per dish in methocult H4434 (Stem Cell Technologies, Vancouver, BC, Canada). Each experiment was performed in duplicates and values mentioned are Mean ± SEM.
We could detect a significant decrease in colony growth in the OCI AML3 cell line with a 92% reduction of colony growth when the cells were incubated with RU-SST and exposed to light compared to the cells treated with RU-SST and not exposed to light (Fig. 2A).
Significance was calculated using the Mann-Whitney test (** < 0.01). […]

[1] = test system: primary AML patient samples (clonogenic progenitor cells); experiment: CFC assay on primary AML patient samples; set-up: average reduction in CFC numbers, with exposure to light / % reduction of CFC: concentration or dose not given beside the values; settings: for CFC/10^4 cells: 4 h incubation, day 14
Text: Mononuclear cells were isolated from bone marrow (BM) or peripheral blood (PB) from patients with primary diagnosed AML, analyzed for their SSTR2 expression (n = 13) and cultured with the RU-SST bioconjugate to test the toxicity of the compound (n = 6). All patient samples were investigated by cytomorphological, cytogenetic and molecular analyses after written informed consent as described. Diagnosis was made according to the French-American-British criteria and the World Health Organization classification (Table 1)[11],[12]. The study was approved by the ethic committee of the University of Ulm. in accordance with the ethical principles of the declaration of Helsinki (http://www.wma.net/en/30publications/10policies/b3/index.html). Leukemic cells were thawed and kept in culture with culture conditions as mentioned previously.
as §1

CD34+ enriched CB cells = experiment: CFC assay on CD34+ enriched cord blood cells; settings: unconjugated RU-Alkyne; ±4.88% SEM; n = 6 CB samples
Procedure: Cells from cord blood (CB) were enriched for CD34^+ using the human CD34 Micro Bead Kit ultrapure (Miltenyi Biotec, Auburn, CA, USA) according to the manufacturer instructions.
To evaluate the toxicity of the bioconjugate on clonogenic progenitor cells, AML cell lines as well primary human cells were incubated with the compound for 4 hours. Subsequently, cells were washed and cell counts were determined via trypan blue exclusion. Colony forming cell unit (CFC) assays were performed as described previously. In all cases cell numbers placed in methylcellulose were calculated according to the initial cell number at the start of the experiment, not taking into account any cell loss during the incubation time. 1000 cells (OCI-AML3 and HL60) and 500 cells (THP1) were plated per dish (methocult H4330). […]
To evaluate, whether the effect of the compound was selective for AML stem and progenitor cells, we analysed the toxicity of the compound for CD34^+ enriched CB cells (n = 6). […]
Figure 3 Effect of RU-complexes on clonogenicity of normal CD34^+ cells: cells from […] CD34^+ enriched cord blood (CB) samples (n = 6) were tested for the effect of both RUSST and RU-Alkyne compounds. […] Percent reduction was determined based on the colony numbers generated from CB cells treated with RU-SST and exposed to light compared to dark RU-SST. […] Significance calculated by Mann-Whitney test ** < 0.01.

IC50 (HL60 cells; 4 h incubation in the dark, washed, 470 nm LED 6 min (6.9 ± 0.9 J cm-2), probit regression, n = 3, mean ± SEM, read-out: IC50 after light irradiation): > 100 µM
IC50 (HL60 cells; 4 h incubation, not exposed to light, IC50 not reached with up to 100 µM, dark RU-SST n = 6, read-out: IC50 in the dark): > 100 µM
Structure (SMILES): C#Cc1ccnc(-c2ccccn2)c1.[Cl-].[Cl-].[Ru+2].c1ccc(-c2ccccn2)nc1.c1ccc(-c2ccccn2)nc1 [RU-Alkyne]
colony growth, exposed or not exposed to light (OCI-AML3 cells): no comparable reduction in colony growth
% reduction of CFC ([1]; AML#1, 6 min RU-Alk (light) vs dark RU-SST): 22%
CFC/10^4 cells ([1]; AML#1, 6 min RU-Alk (light)): 78 CFC/10^4 cells
% reduction of CFC ([1]; AML#1, Dark RU-Alk vs dark RU-SST): 0%
CFC/10^4 cells ([1]; AML#1, Dark RU-Alk): 153 CFC/10^4 cells
% reduction of CFC ([1]; AML#2, 6 min RU-Alk (light) vs dark RU-SST): 17.7%
CFC/10^4 cells ([1]; AML#2, 6 min RU-Alk (light)): 208 CFC/10^4 cells
% reduction of CFC ([1]; AML#2, Dark RU-Alk vs dark RU-SST): 2.0%
CFC/10^4 cells ([1]; AML#2, Dark RU-Alk): 247 CFC/10^4 cells
% reduction of CFC ([1]; AML#3, 6 min RU-Alk (light) vs dark RU-SST): 0%
CFC/10^4 cells ([1]; AML#3, 6 min RU-Alk (light)): 211 CFC/10^4 cells
% reduction of CFC ([1]; AML#3, Dark RU-Alk vs dark RU-SST): 0%
CFC/10^4 cells ([1]; AML#3, Dark RU-Alk): 187 CFC/10^4 cells
% reduction of CFC ([1]; AML#4, 6 min RU-Alk (light) vs dark RU-SST): 48.9%
CFC/10^4 cells ([1]; AML#4, 6 min RU-Alk (light)): 24 CFC/10^4 cells
% reduction of CFC ([1]; AML#4, Dark RU-Alk vs dark RU-SST): 38.2%
CFC/10^4 cells ([1]; AML#4, Dark RU-Alk): 29 CFC/10^4 cells
% reduction of CFC ([1]; AML#5, 6 min RU-Alk (light) vs dark RU-SST): 41.5%
CFC/10^4 cells ([1]; AML#5, 6 min RU-Alk (light)): 69 CFC/10^4 cells
% reduction of CFC ([1]; AML#5, Dark RU-Alk vs dark RU-SST): 38.9%
CFC/10^4 cells ([1]; AML#5, Dark RU-Alk): 72 CFC/10^4 cells
% reduction of CFC ([1]; AML#6, 6 min RU-Alk (light) vs dark RU-SST): 58.7%
CFC/10^4 cells ([1]; AML#6, 6 min RU-Alk (light)): 29 CFC/10^4 cells
% reduction of CFC ([1]; AML#6, Dark RU-Alk vs dark RU-SST): 48.5%
CFC/10^4 cells ([1]; AML#6, Dark RU-Alk): 36 CFC/10^4 cells
average reduction in CFC numbers, with exposure to light ([1]; RU-Alkyne with exposure to light, 6 primary AML samples, mean (SEM), not significant): 31.4%
reduction in colony numbers compared to dark RU-SST (CD34+ enriched CB cells): 18.59%

From PMC6962389, “Somatostatin receptor mediated targeting of acute myeloid leukemia by photodynamic metal complexes for light induced apoptosis” (Scientific Reports, 2020)
